Experiment [1] in a line: Inhibitory concentration against [3H]DPCPX binding to Adenosine A1 receptor from DDT1 MF2 cells.
Experiment [2] in a line: Equilibrium dissociation constant for [3H]DPCPX binding to Adenosine A1 receptor from DDT1 MF2 cell membranes.
Test in experiment [3]: as above
This is another data set of the same source.

Data on three molecules can be found in BindingDB's records for doi:10.1016/s0960-894x(02)00639-x (Monash University (Parkville Campus), 2002).

On to `CCCn1c(=O)c2[nH]c(C3CCCCC3)nc2n(CCCCC(=O)c2ccc(S(=O)(=O)F)cc2)c1=O` [4-[5-(8-Cyclohexyl-2,6-dioxo-1-propyl-1,2,6,7-tetrahydro-purin-3-yl)-pentanoyl]-benzenesulfonyl fluoride], for which, in experiment [1], the IC50 (in general, the concentration at which inhibition is half-maximal) was determined as 17 nM.
On to `CCCn1c(=O)c2[nH]c(C3CC4CCC3C4)nc2n(CCCCC(=O)c2ccc(S(=O)(=O)F)cc2)c1=O` (stereo not given) [4-[5-(8-Bicyclo[2.2.1]hept-2-yl-2,6-dioxo-1-propyl-1,2,6,7-tetrahydro-purin-3-yl)-pentanoyl]-benzenesulfonyl fluoride], for which the Kd (commonly the concentration at which binding is half-saturated) in experiment [2] is 0.53 nM. Also, the IC50 in experiment [1] was determined as 3.9 nM.
As to `CCCn1c(=O)c2[nH]c(C3CCCC3)nc2n(CCCCC(=O)c2ccc(S(=O)(=O)F)cc2)c1=O` [4-[5-(8-Cyclopentyl-2,6-dioxo-1-propyl-1,2,6,7-tetrahydro-purin-3-yl)-pentanoyl]-benzenesulfonyl fluoride], the Kd in experiment [2] came out at 0.53 nM. This molecule yielded an IC50 in experiment [3] of 8.7 nM.
